Source: patent US20040101827A1, “Methods of infection with hepatitis c virus” (priority 2000, published 2004)

Tested on: HCV
Test: Yield of HCV (HCV RNA level) in culture supernatant of HCV cDNA-introduced IMY42-5 cells, real-time detection RT-PCR
Format: cell-based, hepatitis C virus
Conditions: ribavirin 0, 25, 50, 100, 200 μM added simultaneously with Tam, cultured for 2 days (FIG. 10)
Procedure: IMY42-5 cells were prepared by incorporating into IMY-N9 cells, pCALN/HCV RBZ and CAG-Mer-Cre-Mer (Nucleic Acids Res., 1996, 24(4), 543-548) that expresses active Cre recombinant enzyme by adding tamoxifen co-expressed constitutively therein. When tamoxifen acts on the cells, the stuffer region of pCALN/HCV RBZ was looped out and HCV cDNA was expressed.
IMY42-5 cells (2.5×10^5/ml) were inoculated, 100 μl/well in a 96-well plate, and then cultured overnight at 37° C. under 5% CO2 atmosphere. Then 4-hydroxi-tamoxifen (Tam) was added at a concentration of 100 nM. On the next day and 3 days after the addition of Tam, the culture supernatant was collected. RNA in the culture supernatant was extracted using ISOGEN-LS (Wako Pure Chemical Industries, Ltd.), and then HCV RNA levels were quantified by the Real-time detection RT-PCR (Takeuchi T. et al; Gastroenterology 1999; 116: 636-642) method.
CsA (100, 10, 1 and 0 nM) was added simultaneously with the addition of Tam to IMY42-5 cells. The cells were cultured for 3 days, and then HCV RNA levels in the culture supernatant was measured by Real-time detection RT-PCR.
Ribavirin (0, 25, 50, 100, 200 μM) was added simultaneously with the addition of Tam to IMY42-5 cells. The cells were cultured for 2 days, and then HCV RNA levels in the culture supernatant were measured.

NC(=O)c1ncn([C@@H]2O[C@H](CO)[C@@H](O)[C@H]2O)n1 [Ribavirin, ribavirin]
HCV RNA levels in the culture supernatant (yield of virus): no decrease
